Test results published in PMC4128046, “Effect of a toggle switch mutation in TM6 of the human adenosine A3 receptor on Gi protein-dependent signalling and Gi-independent receptor internalization” (British Journal of Pharmacology, 2014).
Changes are numbered by the printed parent chain.

How the values were obtained:
Type in all cases: cell-based
[1] = biological target: T1, SNAP-A3 (Homo sapiens, UniProt P0DMS8); assay: Confocal imaging of SNAP-tagged receptor internalization, SNAP-A3; conditions: SNAP-A3 transiently expressed in CHO CRE-SPAP cells, BG-AF488 label, 10 μM agonist
T1 construct: the methionine start signal was removed from cDNA encoding the full length A3; expressed in transfected cells; host or cells: CHO CRE-SPAP, transient (Fugene HD)
T1 sequence (P0DMS8 2-318 limits assumed): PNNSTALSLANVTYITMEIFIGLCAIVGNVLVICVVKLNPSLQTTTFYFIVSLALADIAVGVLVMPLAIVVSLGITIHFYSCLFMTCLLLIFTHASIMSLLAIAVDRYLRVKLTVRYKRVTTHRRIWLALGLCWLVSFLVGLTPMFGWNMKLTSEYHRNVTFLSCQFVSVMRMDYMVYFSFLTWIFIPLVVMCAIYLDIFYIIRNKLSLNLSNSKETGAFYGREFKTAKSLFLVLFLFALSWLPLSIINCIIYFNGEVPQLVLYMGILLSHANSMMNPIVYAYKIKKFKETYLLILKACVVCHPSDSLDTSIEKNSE
Procedure: CHO-K1 cells stably expressing a cAMP response element-secreted placental alkaline phosphatase (CRE-SPAP) reporter gene (CHO CRE-SPAP) under hygromycin selectivity and CHO-K1 cells stably expressing β-arrestin2-vYnL (CHO β-arrestin2-vYnL, a gift from Dr. N. Holliday, University of Nottingham, Nottingham, UK) were maintained in DMEM/F12 medium containing 10% FCS and 2 mM L-glutamine at 37°C in a humidified atmosphere of air/CO2 (19:1). […] Cell lines were initially screened for YFP or bimolecular fluorescence complementation (BiFC) fluorescence and CRE-SPAP cells lines were subsequently tested in the CRE-SPAP gene transcription assay. […]
Live-cell BiFC imaging was performed on A3-vYc/β-arrestin2-vYnL and A3 W243F-vYc/β-arrestin2-vYnL cells grown in Nunc Labtek 8-well plates, and images obtained using a Zeiss 710 confocal microscope (Carl Zeiss GmbH, Jena, Germany) fitted with a 63× plan-Apochromat NA1.4 Ph3 oil-immersion objective. […] For both YFP, BiFC and BG-AF488 label, a 488 nm argon laser was used to excite the fluorophore and emission was detected using a BP505-530 filter. […] Images of A3-YFP and A3 W243F-YFP cells were taken with same pinhole diameter, laser power, gain and offset to allow comparison of YFP fluorescence. To obtain fluorescence intensity values, a region of interest was drawn around the plasma membrane of 10 cells per image in Zeiss AIM 4.2 software (Carl Zeiss GmbH).

[2] = biological target: T2, A3-YFP (Homo sapiens, UniProt P0DMS8); assay: Confocal imaging of receptor internalization and membrane YFP fluorescence, A3-YFP; conditions: A3-YFP cells, 10 μM agonist
T2 construct: cDNA encoding the full length human A3 receptor; expressed in transfected cells
T2 sequence (P0DMS8 1-318): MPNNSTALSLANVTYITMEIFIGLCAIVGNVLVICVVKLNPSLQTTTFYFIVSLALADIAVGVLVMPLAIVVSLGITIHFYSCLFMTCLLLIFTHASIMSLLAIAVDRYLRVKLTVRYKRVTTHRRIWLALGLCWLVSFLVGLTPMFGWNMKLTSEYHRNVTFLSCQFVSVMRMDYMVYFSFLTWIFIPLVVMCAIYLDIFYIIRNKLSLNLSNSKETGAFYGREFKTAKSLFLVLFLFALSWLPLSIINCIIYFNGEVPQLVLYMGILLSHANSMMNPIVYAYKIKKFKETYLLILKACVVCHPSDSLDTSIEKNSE
Procedure: (§1) Live-cell BiFC imaging was performed on A3-vYc/β-arrestin2-vYnL and A3 W243F-vYc/β-arrestin2-vYnL cells grown in Nunc Labtek 8-well plates, and images obtained using a Zeiss 710 confocal microscope (Carl Zeiss GmbH, Jena, Germany) fitted with a 63× plan-Apochromat NA1.4 Ph3 oil-immersion objective. Live-cell imaging analysis was performed on A3-YFP or A3 W243F-YFP CRE-SPAP cells and transiently expressed SNAP-A3 or SNAP-A3 W243F grown in Nunc Labtek 8-well plates, and images obtained using a Zeiss LSM5 Exciter confocal microscope (Carl Zeiss GmbH) fitted with a 63× plan-Apochromat NA1.4 DIC oil-immersion objective. For both YFP, BiFC and BG-AF488 label, a 488 nm argon laser was used to excite the fluorophore and emission was detected using a BP505-530 filter. Cells expressing the SNAP-tagged receptors were labelled with 1 μM SNAP-surface BG-AF488 (New England Biolabs) in DMEM/F12 medium for 30 min at 37°C/5% CO2. Before all imaging experiments, normal growth medium or medium containing BG-AF488 was removed and cells were washed twice in HEPES-buffered saline solution (HBSS; 25 mM HEPES, 10 mM glucose, 146 mM NaCl, 5 mM KCl, 1 mM MgSO4, 2 mM sodium pyruvate, 1.3 mM CaCl2) and fresh HBSS was added for analysis. […] Images of A3-YFP and A3 W243F-YFP cells were taken with same pinhole diameter, laser power, gain and offset to allow comparison of YFP fluorescence. To obtain fluorescence intensity values, a region of interest was drawn around the plasma membrane of 10 cells per image in Zeiss AIM 4.2 software (Carl Zeiss GmbH).

[3] = biological target: T3, A3-vYc/β-arrestin2-vYnL (Homo sapiens, UniProt P0DMS8); assay: BiFC of receptor with β-arrestin2 (automated imaging), A3-vYc; conditions: A3-vYc/β-arrestin2-vYnL cells; for Maximal BiFC (%): percentage of 10 μM NECA in the cell line
T3 construct: cDNA encoding the full length human A3 receptor; expressed in transfected cells; host or cells: CHO-K1 stably expressing β-arrestin2-vYnL, stably co-transfected with A3-vYc
T3 sequence (P32121 whole entry partner, one chain of several): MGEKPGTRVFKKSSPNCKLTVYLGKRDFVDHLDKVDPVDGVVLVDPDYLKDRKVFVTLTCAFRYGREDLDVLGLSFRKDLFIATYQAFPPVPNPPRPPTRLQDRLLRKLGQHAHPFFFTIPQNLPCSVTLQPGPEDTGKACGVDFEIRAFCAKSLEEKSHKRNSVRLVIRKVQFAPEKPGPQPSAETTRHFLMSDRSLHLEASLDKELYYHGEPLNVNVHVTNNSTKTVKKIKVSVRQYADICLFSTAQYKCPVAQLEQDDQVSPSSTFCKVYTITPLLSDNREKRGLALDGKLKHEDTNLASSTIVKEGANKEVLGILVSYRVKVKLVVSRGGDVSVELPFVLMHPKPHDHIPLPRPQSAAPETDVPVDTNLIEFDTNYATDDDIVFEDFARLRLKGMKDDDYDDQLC

[4] = biological target: T4, A3 W243F-YFP (Homo sapiens, UniProt P0DMS8, W243F); assay: Confocal imaging of receptor internalization and membrane YFP fluorescence, A3 W243F-YFP; conditions: A3 W243F-YFP cells, 10 μM agonist
T4 construct: Full length A3 W243F-YFP was excised and subcloned into a native pcDNA3.1 vector; expressed in transfected cells
T4 sequence (P0DMS8 1-318 W243F): T2 sequence (P0DMS8 1-318) with W243F
Procedure: as §1

| Compound | internalization of SNAP-tagged receptor seen in confocal images [1] | internalization of the receptor seen in confocal images [2] | reduction in membrane fluorescence [2] [%] | % maximal internalization vs. 10 μM NECA at 2 h (BiFC) ([3]; 10 μM, 2 h) [%] | Maximal BiFC (%) ([3]; 60 min) | EC50 ([3]; 60 min, read-out: pEC50 (BiFC with β-arrestin2-vYnL) (converted)) [nM] | internalization of the receptor seen in confocal images [4] | reduction in membrane fluorescence [4] |
| --- | --- | --- | --- | --- | --- | --- | --- | --- |
| CCCCC#Cc1nc(NC)c2ncn([C@@H]3O[C@H](CO)[C@@H](O)[C@H]3O)c2n1 [HEMADO, 2-(1-hexynyl)-N-methyladenosine] | clear punctate granules | substantial internalization | 50 | 84.3 ± 8.2 | 72.2 ± 7.1 | 6.46 | unable to stimulate internalization | no significant change |
| CCNC(=O)[C@H]1O[C@@H](n2cnc3c(N)ncnc32)[C@H](O)[C@@H]1O [NECA, 5-(N-ethylcarboxamido)adenosine] | clear punctate granules | rapid internalization | 50 |  | 100 |  | rapid internalization |  |
